From ChEMBL document CHEMBL4507291 (2021)

How the values were obtained:
[1] = target: Phosphatidylinositol 4-kinase beta (Homo sapiens) (UniProt Q9UBF8); assay: PI4KB (PI4K beta) Kinase screen; details: Compound concentration 1.0 uM
[2] = target: Beta-2 adrenergic receptor (Homo sapiens) (UniProt P07550); details: Compound concentration 10.0 uM
[3] = target: Mast/stem cell growth factor receptor Kit (Homo sapiens) (UniProt P10721); assay: KIT Kinase screen; details: Compound concentration 1.0 uM
[4] = target: Substance-P receptor (Homo sapiens) (UniProt P25103); assay: Inhibition of Tachykinin NK1 at 10 µM in the Eurofins-Panlabs radioligand binding assay (Eurofins_assay_255520); design: ligand concentration 0.8 nM; details: Compound concentration 10.0 uM
[5] = target: Tyrosine-protein kinase SYK (Homo sapiens) (UniProt P43405); assay: SYK Kinase screen; details: Compound concentration 1.0 uM
[6] = target: Acetylcholine receptor subunit alpha (Homo sapiens) (UniProt P02708); assay: Inhibition of Nicotinic Acetylcholine D1, Bungarotoxin at 10 µM in the Eurofins-Panlabs radioligand binding assay (Eurofins_assay_258700); details: Compound concentration 10.0 uM
[7] = target: Ribosomal protein S6 kinase beta-1 (Homo sapiens) (UniProt P23443); assay: RPS6KB1 (p70S6K) Kinase screen; details: Compound concentration 1.0 uM
[8] = target: T1, Alpha-1A adrenergic receptor (Homo sapiens) (UniProt P35348); details: Rattus norvegicus; Compound concentration 10.0 uM
T1 sequence (whole entry): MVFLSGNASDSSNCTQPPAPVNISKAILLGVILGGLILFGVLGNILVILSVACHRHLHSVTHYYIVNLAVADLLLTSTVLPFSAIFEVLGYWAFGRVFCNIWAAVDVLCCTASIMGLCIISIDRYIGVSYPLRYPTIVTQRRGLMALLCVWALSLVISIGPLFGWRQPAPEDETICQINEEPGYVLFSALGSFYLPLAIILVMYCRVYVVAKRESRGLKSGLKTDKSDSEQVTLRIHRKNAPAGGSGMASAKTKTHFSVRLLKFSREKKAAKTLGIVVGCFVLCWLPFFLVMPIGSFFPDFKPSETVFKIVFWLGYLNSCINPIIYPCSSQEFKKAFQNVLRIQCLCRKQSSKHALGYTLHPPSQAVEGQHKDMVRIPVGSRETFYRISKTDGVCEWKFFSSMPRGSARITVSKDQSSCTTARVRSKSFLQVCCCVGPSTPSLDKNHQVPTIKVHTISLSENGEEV

[9] = target: T2, Discoidin domain-containing receptor 2 (Homo sapiens) (UniProt Q16832); assay: DDR2 Kinase screen; details: Compound concentration 1.0 uM
T2 sequence (whole entry): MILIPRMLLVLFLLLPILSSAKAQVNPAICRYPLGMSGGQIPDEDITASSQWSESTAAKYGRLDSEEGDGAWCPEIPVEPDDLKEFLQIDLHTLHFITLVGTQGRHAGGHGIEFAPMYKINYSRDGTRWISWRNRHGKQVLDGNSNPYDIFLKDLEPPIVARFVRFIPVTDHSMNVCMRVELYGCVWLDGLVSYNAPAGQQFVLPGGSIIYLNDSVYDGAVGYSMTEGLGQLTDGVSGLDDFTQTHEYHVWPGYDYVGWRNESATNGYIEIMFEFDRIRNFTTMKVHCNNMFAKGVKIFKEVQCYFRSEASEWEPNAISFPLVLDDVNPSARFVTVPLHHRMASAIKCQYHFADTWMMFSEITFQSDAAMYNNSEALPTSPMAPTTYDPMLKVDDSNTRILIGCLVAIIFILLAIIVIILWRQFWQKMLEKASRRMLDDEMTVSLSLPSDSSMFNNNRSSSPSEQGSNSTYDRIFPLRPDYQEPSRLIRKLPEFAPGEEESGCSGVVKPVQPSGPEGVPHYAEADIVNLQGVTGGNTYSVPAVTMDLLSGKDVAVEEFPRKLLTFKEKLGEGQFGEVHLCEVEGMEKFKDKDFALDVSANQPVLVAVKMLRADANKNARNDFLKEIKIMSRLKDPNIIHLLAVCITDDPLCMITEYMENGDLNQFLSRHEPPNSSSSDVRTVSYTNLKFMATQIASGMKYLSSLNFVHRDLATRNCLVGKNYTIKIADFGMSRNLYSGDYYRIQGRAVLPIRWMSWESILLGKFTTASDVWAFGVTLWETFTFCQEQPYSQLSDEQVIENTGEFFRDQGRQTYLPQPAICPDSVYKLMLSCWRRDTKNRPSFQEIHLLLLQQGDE

[10] = target: LIM domain kinase 1 (Homo sapiens) (UniProt P53667); assay: LIMK1 Kinase screen; details: Compound concentration 1.0 uM
[11] = target: Activin receptor type-2B (Homo sapiens) (UniProt Q13705); assay: ACVR2B Kinase screen; details: Compound concentration 1.0 uM
[12] = target: Gastrin/cholecystokinin type B receptor (Homo sapiens) (UniProt P32239); details: Compound concentration 10.0 uM
[13] = target: Casein kinase I isoform gamma-2 (Homo sapiens) (UniProt P78368); assay: CSNK1G2 (CK1 gamma 2) Kinase screen; details: Compound concentration 1.0 uM
[14] = target: Serine/threonine-protein kinase PAK 6 (Homo sapiens) (UniProt Q9NQU5); assay: PAK6 Kinase screen; details: Compound concentration 1.0 uM
[15] = target: Mitogen-activated protein kinase kinase kinase 8 (Homo sapiens) (UniProt P41279); assay: MAP3K8 (COT) Kinase screen; details: Compound concentration 1.0 uM
[16] = target: B1 bradykinin receptor (Homo sapiens) (UniProt P46663); assay: Inhibition of Bradykinin B1 at 10 µM in the Eurofins-Panlabs radioligand binding assay (Eurofins_assay_212510); details: Compound concentration 10.0 uM
[17] = target: Ribosomal protein S6 kinase alpha-3 (Homo sapiens) (UniProt P51812); assay: RPS6KA3 (RSK2) Kinase screen; details: Compound concentration 1.0 uM
[18] = target: Beta-1 adrenergic receptor (Homo sapiens) (UniProt P08588); details: Compound concentration 10.0 uM
[19] = target: High affinity choline transporter 1 (Homo sapiens) (UniProt Q9GZV3); assay: Transporter, Choline Eurofins-Panlabs radioligand binding assay; design: ligand concentration 0.75 nM; details: Rattus norvegicus; Compound concentration 10.0 uM
[20] = target: Serine/threonine-protein kinase WNK2 (Homo sapiens) (UniProt Q9Y3S1); assay: WNK2 Kinase screen; details: Compound concentration 1.0 uM
[21] = tested on: Tyrosine-protein kinase ABL1 (Homo sapiens), P00519 [T315I]; assay: ABL1 T315I Kinase screen; details: Compound concentration 1.0 uM
[22] = target: Glutamate NMDA receptor (Rattus norvegicus) (UniProt P35439+Q00959+Q00960+Q00961+Q62645+Q8VHN2+Q9R1M7); details: Compound concentration 10.0 uM
[23] = target: Serine/threonine-protein kinase PAK 3 (Homo sapiens) (UniProt O75914); assay: PAK3 Kinase screen; details: Compound concentration 1.0 uM
[24] = target: Beta-3 adrenergic receptor (Homo sapiens) (UniProt P13945); details: Compound concentration 10.0 uM

Measured: inhibition

Sequence of Serine/threonine-protein kinase WNK2 (Homo sapiens) (Q9Y3S1 whole entry): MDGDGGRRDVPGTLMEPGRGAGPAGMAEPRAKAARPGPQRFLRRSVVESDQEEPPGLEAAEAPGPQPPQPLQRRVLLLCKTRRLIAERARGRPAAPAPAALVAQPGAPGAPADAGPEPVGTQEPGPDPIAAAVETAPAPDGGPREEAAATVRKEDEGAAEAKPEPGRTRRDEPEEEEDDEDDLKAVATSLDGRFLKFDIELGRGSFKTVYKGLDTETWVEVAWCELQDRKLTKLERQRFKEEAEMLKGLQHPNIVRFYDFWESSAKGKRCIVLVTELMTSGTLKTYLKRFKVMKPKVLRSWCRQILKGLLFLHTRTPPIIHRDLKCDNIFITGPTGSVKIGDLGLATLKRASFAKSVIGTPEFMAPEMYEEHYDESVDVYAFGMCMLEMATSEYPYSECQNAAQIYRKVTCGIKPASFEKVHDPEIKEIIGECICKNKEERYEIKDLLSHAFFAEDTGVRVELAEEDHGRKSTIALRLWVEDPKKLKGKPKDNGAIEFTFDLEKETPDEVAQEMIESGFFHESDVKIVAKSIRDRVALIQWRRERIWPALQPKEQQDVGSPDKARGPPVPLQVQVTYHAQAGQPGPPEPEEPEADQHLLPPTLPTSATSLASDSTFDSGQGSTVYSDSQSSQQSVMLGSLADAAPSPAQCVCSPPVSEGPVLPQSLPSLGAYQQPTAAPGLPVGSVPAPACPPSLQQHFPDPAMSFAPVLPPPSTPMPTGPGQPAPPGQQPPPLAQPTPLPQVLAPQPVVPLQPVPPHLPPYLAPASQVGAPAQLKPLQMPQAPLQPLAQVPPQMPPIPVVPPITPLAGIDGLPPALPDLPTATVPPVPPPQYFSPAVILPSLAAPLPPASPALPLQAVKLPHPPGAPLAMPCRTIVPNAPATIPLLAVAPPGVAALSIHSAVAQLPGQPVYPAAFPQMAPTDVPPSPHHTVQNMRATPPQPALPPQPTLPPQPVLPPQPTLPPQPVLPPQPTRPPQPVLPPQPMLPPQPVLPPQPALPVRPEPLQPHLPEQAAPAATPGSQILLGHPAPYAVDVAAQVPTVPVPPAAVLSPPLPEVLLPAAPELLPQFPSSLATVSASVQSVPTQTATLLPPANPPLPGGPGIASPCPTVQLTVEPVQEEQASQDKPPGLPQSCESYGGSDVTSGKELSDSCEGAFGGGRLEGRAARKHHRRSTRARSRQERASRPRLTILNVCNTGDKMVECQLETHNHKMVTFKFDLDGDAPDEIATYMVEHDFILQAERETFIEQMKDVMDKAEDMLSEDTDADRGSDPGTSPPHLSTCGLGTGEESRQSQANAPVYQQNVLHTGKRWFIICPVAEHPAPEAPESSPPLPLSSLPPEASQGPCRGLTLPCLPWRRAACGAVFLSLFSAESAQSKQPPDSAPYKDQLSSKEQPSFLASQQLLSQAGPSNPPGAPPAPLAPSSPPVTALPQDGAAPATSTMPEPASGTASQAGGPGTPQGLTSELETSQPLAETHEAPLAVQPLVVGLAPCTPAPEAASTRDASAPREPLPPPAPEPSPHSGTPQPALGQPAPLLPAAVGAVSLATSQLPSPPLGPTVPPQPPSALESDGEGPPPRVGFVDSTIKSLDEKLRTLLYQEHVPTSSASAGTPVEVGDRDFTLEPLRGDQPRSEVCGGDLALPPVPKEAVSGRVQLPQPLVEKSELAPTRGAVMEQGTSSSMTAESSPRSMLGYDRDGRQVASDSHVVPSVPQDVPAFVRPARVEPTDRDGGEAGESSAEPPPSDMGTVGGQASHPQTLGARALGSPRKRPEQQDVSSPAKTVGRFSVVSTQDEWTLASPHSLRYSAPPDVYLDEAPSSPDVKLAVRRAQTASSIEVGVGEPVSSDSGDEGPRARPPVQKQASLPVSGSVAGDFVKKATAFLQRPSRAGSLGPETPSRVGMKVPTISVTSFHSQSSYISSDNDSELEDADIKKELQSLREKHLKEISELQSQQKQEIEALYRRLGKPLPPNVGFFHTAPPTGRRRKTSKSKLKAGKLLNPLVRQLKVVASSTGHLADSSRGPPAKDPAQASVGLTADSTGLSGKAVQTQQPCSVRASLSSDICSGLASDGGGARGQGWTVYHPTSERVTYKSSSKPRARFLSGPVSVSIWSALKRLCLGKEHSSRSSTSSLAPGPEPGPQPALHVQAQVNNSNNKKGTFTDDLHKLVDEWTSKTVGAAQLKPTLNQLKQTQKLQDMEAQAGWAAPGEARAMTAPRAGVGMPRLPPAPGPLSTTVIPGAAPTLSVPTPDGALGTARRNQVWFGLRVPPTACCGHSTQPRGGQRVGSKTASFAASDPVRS
Sequence of Acetylcholine receptor subunit alpha (Homo sapiens) (P02708 whole entry): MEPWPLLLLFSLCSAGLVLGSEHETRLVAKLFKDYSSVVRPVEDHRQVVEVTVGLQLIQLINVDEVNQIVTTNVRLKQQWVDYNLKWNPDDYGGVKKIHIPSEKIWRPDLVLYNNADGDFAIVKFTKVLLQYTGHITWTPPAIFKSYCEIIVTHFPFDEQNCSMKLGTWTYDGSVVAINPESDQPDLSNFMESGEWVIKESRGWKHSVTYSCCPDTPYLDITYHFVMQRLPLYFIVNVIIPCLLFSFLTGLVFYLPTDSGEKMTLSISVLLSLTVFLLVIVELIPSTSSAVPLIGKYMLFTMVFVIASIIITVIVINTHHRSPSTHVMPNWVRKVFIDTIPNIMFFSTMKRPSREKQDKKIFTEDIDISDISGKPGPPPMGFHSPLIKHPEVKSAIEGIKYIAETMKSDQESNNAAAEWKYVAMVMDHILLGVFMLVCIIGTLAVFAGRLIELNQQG
Sequence of Serine/threonine-protein kinase PAK 3 (Homo sapiens) (O75914 whole entry, looked up): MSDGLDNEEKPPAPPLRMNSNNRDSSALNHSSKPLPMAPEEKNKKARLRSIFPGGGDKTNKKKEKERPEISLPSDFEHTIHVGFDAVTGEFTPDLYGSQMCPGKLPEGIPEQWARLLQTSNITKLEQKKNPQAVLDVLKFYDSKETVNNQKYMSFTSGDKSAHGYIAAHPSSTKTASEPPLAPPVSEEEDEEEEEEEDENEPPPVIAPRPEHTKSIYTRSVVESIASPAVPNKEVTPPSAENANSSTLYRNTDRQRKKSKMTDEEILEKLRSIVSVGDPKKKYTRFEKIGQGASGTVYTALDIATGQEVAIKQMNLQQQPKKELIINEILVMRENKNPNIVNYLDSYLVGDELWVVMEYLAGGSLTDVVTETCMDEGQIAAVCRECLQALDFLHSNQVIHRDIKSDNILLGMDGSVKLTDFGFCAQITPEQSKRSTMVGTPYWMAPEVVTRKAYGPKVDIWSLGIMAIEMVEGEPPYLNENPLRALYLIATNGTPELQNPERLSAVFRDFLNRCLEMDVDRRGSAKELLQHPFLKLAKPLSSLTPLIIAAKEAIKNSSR
Sequence of Beta-1 adrenergic receptor (Homo sapiens) (P08588 whole entry, looked up): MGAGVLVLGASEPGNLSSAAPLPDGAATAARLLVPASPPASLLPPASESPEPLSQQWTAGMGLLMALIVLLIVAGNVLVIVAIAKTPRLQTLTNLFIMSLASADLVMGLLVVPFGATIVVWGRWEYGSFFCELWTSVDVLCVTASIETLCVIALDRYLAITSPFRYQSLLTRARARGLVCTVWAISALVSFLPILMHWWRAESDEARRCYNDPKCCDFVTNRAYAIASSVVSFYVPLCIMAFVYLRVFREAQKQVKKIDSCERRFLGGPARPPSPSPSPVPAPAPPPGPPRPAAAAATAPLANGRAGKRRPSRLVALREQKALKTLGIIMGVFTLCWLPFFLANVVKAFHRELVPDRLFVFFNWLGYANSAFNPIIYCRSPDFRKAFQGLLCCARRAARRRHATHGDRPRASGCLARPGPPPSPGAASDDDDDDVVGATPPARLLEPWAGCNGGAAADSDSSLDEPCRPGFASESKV
Sequence of Ribosomal protein S6 kinase alpha-3 (Homo sapiens) (P51812 whole entry): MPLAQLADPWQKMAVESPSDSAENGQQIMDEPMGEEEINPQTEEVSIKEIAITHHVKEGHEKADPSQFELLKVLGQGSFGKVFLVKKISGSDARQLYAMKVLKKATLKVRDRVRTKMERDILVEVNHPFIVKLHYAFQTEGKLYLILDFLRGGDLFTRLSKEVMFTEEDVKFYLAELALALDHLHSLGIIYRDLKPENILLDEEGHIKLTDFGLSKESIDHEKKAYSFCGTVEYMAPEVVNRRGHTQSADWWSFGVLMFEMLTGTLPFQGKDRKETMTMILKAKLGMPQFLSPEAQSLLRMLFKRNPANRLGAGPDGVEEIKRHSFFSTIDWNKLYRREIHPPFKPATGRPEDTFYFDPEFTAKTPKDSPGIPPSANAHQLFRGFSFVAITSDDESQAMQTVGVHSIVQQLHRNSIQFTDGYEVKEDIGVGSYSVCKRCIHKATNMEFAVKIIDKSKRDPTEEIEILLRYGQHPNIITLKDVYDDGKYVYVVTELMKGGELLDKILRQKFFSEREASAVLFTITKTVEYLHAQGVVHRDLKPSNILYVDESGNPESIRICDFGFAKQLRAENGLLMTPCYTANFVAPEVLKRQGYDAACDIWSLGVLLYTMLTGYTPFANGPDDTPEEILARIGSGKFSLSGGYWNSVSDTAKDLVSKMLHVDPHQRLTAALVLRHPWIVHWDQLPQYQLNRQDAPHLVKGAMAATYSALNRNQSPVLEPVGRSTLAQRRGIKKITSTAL
Sequence of Mitogen-activated protein kinase kinase kinase 8 (Homo sapiens) (P41279 whole entry): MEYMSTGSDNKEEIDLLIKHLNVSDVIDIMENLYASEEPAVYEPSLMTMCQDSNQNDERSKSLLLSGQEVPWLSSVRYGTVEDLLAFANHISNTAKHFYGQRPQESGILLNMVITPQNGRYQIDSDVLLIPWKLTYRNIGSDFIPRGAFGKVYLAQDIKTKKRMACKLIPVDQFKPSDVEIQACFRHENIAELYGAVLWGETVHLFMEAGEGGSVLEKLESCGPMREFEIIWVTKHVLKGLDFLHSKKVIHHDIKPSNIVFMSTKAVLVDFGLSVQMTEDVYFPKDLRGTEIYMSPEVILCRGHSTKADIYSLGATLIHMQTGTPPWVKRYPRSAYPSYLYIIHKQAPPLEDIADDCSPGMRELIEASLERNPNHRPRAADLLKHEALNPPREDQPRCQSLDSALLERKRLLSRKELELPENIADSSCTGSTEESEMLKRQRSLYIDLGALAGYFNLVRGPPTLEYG

C[C@@H]1CN(c2cc(-c3n[nH]c4ccc(OC5(C)CC5)cc34)ncn2)C[C@H](C)O1 [MLi-2]
inactive: [1] 1.46% | [2] 16% | [3] 5.52% | [4] 22% | [5] 2.84% | [6] 6% | [7] 5.26% | [8] 9% | [9] 3.64% | [10] 11% | [11] -1.21% | [12] 15% | [13] 2.4% | [14] 1.67% | [15] 16.3% | [16] 8% | [17] 3.91% | [18] -7% | [19] 18% | [20] -1.69% | [21] 9.34% | [22] 4% | [23] 10.9% | [24] 21%
